In US9055741B2, “Contacting crop plants with compositions” (Rohm and Haas Company, priority 2006, dated 2015):

Tests used:
Format in all cases: in vivo
[1] = system: Golden Delicious apple trees; assay: Golden Delicious fruit drop after pre-harvest spray; details: NAA 20 ppm, AVG 125 ppm, Powder 1 375 g AI/ha
Method: (§1) Spray tank was filled with approximately two-thirds of the total volume of water required. The amount of Powder 1 or Powder 2 was weighed according to the rate and total volume of spray being prepared. The appropriate amount of was calculated to give 1% v/v of total spray volume. Adjuvant 1 was added to the spray tank, which was agitated until the mixture turned milky white. Powder 1 or Powder 2 was added to the spray container, which was then gently (not vigorously) agitated. The remaining water was added, making sure all of the powder was wet and washed off of the sides of the tank (if any had deposited there). The spray tank was then swirled or stirred for at least two minutes (2-5 minutes) to ensure good mixing. Between 5 and 60 minutes thereafter, plants were sprayed with the mixture.
(§2) Flat fan nozzles were used, producing droplet size of 100 to 500 micrometers. Spray rate of mixture was 500 liter per hectare. Backpack sprayer was used. Spraying was performed before 10:00 am.
Using methods similar to those of Example 1, Golden Delicious apple trees were sprayed one week before the apples would normally be harvested for commercial use. The apples were left on the trees to observe postharvest drop. The spray containing Powder 1 was used to give 375 gram of AI per hectare. NAA was used at 20 ppm, and AVG was used at 125 ppm. […]

cotton = assay: Cotton field treatment: lint yield; details: UTC 228.0, Adjuvant 1 only 245.1
Method: as §1, §2
Using methods similar to those of Example 1, cotton was also tested. Each treated group of plants was treated either two or three times, as follows:
The crop yield was assessed as the weight of lint per hectare. Treatment types, treatment amounts (grams of AI per hectare), and results were as follows. Many of the treatments lead to improvements in the yield of lint.

Fuji apple trees = assay: Fuji apples: staining after harvest and storage; details: 250 ppm, approximately 211 g/ha (520 g/acre) each, Untreated 12
Source text: Fuji apple trees were sprayed prior to harvest either one or two times, with spray containing 250 ppm of 1-MCP. Each spraying provided treatment of approximately 211 g/ha ([…]). After harvesting and storage, the apples were inspected for staining.

wheat = assay: Wheat field treatment: yield and frost damage; details: for Frost Damage (percentage of barren husks): untreated 21; for Yield: untreated 3890
Method: as §1, §2
(§3) Using methods similar to those of Example 1, wheat was sprayed at stage F10.5. Frost damage was assessed by examining the portion of the seed head damaged; the percentage of barren husks is reported. Damage from fusarium disease was assessed as a percentage of seed heads damaged by the disease organism.

fusarium disease = assay: Wheat field treatment: damage from fusarium disease; details: untreated 6
Method: as §1, §2, §3

Soybean plants = assay: Soybean crop yield and protein content; details: for Protein %: untreated 36.93/36.87; for Yield: untreated 3607.20/3687.67
Method: as §1, §2
Soybean plants were treated using methods similar to those of Example 1. Treatment was performed when the plants were at one or more of the following growth stages: R2, R3, and R5.5.

[2] = 1 g/ha, timing R2, R3, and R5.5
[3] = 10 g/ha, timing R2, R3, and R5.5
[4] = 30 g/ha, timing R2, R3, and R5.5
[5] = dosage Exaggerated 1, every 2 weeks
[6] = dosage Exaggerated 2, every 2 weeks

Question: `O=C(O)Cc1cccc2ccccc12` [NAA, 1-naphthaleneacetic acid] was tested. Which “number of dropped fruit per tree” value ([1]; day 0 after treatment, UTC 0) did it give?
Answer: The value was 0.

Question: What about the “number of dropped fruit per tree” value ([1]; day 7 after treatment, UTC 18) of the same compound?
Answer: The value was 5.

Question: What about the “number of dropped fruit per tree” value ([1]; day 21 after treatment, UTC 45) of the same compound?
Answer: Its value is 20.

Question: And the “number of dropped fruit per tree” value ([1]; day 28 after treatment, UTC 115)?
Answer: The value was 65.

Question: What about the “number of dropped fruit per tree” value ([1]; day 35 after treatment, UTC 195) of the same compound?
Answer: The value was 118.

Question: What about the “number of dropped fruit per tree” value ([1]; day 62 after treatment, UTC 30) of the same compound?
Answer: Its value is 11.

Question: `CC1=CC1` [1-MCP, 1-methylcyclopropene] was tested. Which Lint (cotton; 250 g/ha AI, type EB 2) did it give?
Answer: The Lint was 245.3 kg/ha.

Question: And the Lint (cotton; 250 g/ha AI, type EB 3)?
Answer: Its Lint is 250.2 kg/ha.

Question: And the Lint (cotton; 250 g/ha AI, type PHS 2)?
Answer: Its Lint is 230.6 kg/ha.

Question: And the Lint (cotton; 250 g/ha AI, type PHS 3)?
Answer: The Lint was 231.8 kg/ha.

Question: And the Lint (cotton; 500 g/ha AI, type EB 2)?
Answer: The Lint was 234.2 kg/ha.

Question: What about the Lint (cotton; 500 g/ha AI, type EB 3) of the same compound?
Answer: Its Lint is 261.3 kg/ha.

Question: What about the Lint (cotton; 500 g/ha AI, type PHS 2) of the same compound?
Answer: The Lint was 257.6 kg/ha.

Question: What about the Lint (cotton; 500 g/ha AI, type PHS 3) of the same compound?
Answer: Its Lint is 262.0 kg/ha.

Question: What about the Lint (cotton; 1250 g/ha AI, type EB 2) of the same compound?
Answer: Its Lint is 235.0 kg/ha.

Question: And the Lint (cotton; 1250 g/ha AI, type EB 3)?
Answer: Its Lint is 260.7 kg/ha.

Question: And the Lint (cotton; 1250 g/ha AI, type PHS 2)?
Answer: Its Lint is 253.9 kg/ha.

Question: What about the Lint (cotton; 1250 g/ha AI, type PHS 3) of the same compound?
Answer: Its Lint is 241.4 kg/ha.

Question: What about the “% Staining” value (Fuji apple trees; 1 spray application) of the same compound?
Answer: Its value is 8.5%.

Question: What about the “% Staining” value (Fuji apple trees; 2 spray applications) of the same compound?
Answer: The value was 3%.

Question: And the “Frost Damage (percentage of barren husks)” value (wheat; 10 g/ha AI at stage F10.5)?
Answer: The value was 6%.

Question: And the Yield (wheat; 10 g/ha AI at stage F10.5)?
Answer: Its Yield is 4458 kg dry weight/ha.

Question: And the “Frost Damage (percentage of barren husks)” value (wheat; 25 g/ha AI at stage F10.5)?
Answer: Its value is 3%.

Question: And the Yield (wheat; 25 g/ha AI at stage F10.5)?
Answer: The Yield was 4522 kg dry weight/ha.

Question: And the “Disease Damage (percentage of seed heads damaged)” value (fusarium disease; 10 g/ha AI at stage F10.5)?
Answer: The value was 0.5%.

Question: What about the “Disease Damage (percentage of seed heads damaged)” value (fusarium disease; 25 g/ha AI at stage F10.5) of the same compound?
Answer: Its value is 3%.

Question: What about the Protein % (Soybean plants; [2]) of the same compound?
Answer: Its Protein % is 38.4%.

Question: And the Yield (Soybean plants; [2])?
Answer: The Yield was 3955.68 kg/ha.

Question: What about the Protein % (Soybean plants; 1 g/ha, timing R2) of the same compound?
Answer: Its Protein % is 37.88%.

Question: What about the Yield (Soybean plants; 1 g/ha, timing R2) of the same compound?
Answer: The Yield was 3691.44 kg/ha.

Question: And the Protein % (Soybean plants; 1 g/ha, timing R2 and R3)?
Answer: The Protein % was 37.85%.

Question: What about the Yield (Soybean plants; 1 g/ha, timing R2 and R3) of the same compound?
Answer: The Yield was 3786.48 kg/ha.

Question: And the Protein % (Soybean plants; 1 g/ha, timing R2 and R5.5)?
Answer: Its Protein % is 38.45%.

Question: And the Yield (Soybean plants; 1 g/ha, timing R2 and R5.5)?
Answer: Its Yield is 3704.04 kg/ha.

Question: What about the Protein % (Soybean plants; 1 g/ha, timing R3) of the same compound?
Answer: Its Protein % is 37.89%.

Question: What about the Yield (Soybean plants; 1 g/ha, timing R3) of the same compound?
Answer: The Yield was 3795.48 kg/ha.

Question: What about the Protein % (Soybean plants; 1 g/ha, timing R3 and R5.5) of the same compound?
Answer: Its Protein % is 38.75%.

Question: What about the Yield (Soybean plants; 1 g/ha, timing R3 and R5.5) of the same compound?
Answer: Its Yield is 3763.80 kg/ha.

Question: What about the Protein % (Soybean plants; 1 g/ha, timing R5.5) of the same compound?
Answer: The Protein % was 38.25%.

Question: What about the Yield (Soybean plants; 1 g/ha, timing R5.5) of the same compound?
Answer: The Yield was 3659.76 kg/ha.

Question: What about the Protein % (Soybean plants; [3]) of the same compound?
Answer: The Protein % was 37.87%.

Question: What about the Yield (Soybean plants; [3]) of the same compound?
Answer: The Yield was 4119.48 kg/ha.

Question: And the Protein % (Soybean plants; 10 g/ha, timing R2)?
Answer: Its Protein % is 37.67%.

Question: And the Yield (Soybean plants; 10 g/ha, timing R2)?
Answer: The Yield was 3671.64 kg/ha.

Question: And the Protein % (Soybean plants; 10 g/ha, timing R2 and R3)?
Answer: Its Protein % is 38.27%.

Question: What about the Yield (Soybean plants; 10 g/ha, timing R2 and R3) of the same compound?
Answer: The Yield was 3872.84 kg/ha.

Question: And the Protein % (Soybean plants; 10 g/ha, timing R2 and R5.5)?
Answer: Its Protein % is 38.63%.

Question: What about the Yield (Soybean plants; 10 g/ha, timing R2 and R5.5) of the same compound?
Answer: The Yield was 3817.80 kg/ha.

Question: And the Protein % (Soybean plants; 10 g/ha, timing R3)?
Answer: Its Protein % is 38.64%.

Question: And the Yield (Soybean plants; 10 g/ha, timing R3)?
Answer: Its Yield is 3757.68 kg/ha.

Question: What about the Protein % (Soybean plants; 10 g/ha, timing R3 and R5.5) of the same compound?
Answer: The Protein % was 38.3%.

Question: And the Yield (Soybean plants; 10 g/ha, timing R3 and R5.5)?
Answer: Its Yield is 3791.52 kg/ha.

Question: And the Protein % (Soybean plants; 10 g/ha, timing R5.5)?
Answer: Its Protein % is 38.32%.

Question: What about the Yield (Soybean plants; 10 g/ha, timing R5.5) of the same compound?
Answer: Its Yield is 3721.32 kg/ha.

Question: And the Protein % (Soybean plants; [4])?
Answer: Its Protein % is 37.48%.

Question: What about the Yield (Soybean plants; [4]) of the same compound?
Answer: The Yield was 4347.00 kg/ha.

Question: What about the Protein % (Soybean plants; 30 g/ha, timing R2) of the same compound?
Answer: Its Protein % is 38.08%.

Question: And the Yield (Soybean plants; 30 g/ha, timing R2)?
Answer: The Yield was 3702.24 kg/ha.

Question: What about the Protein % (Soybean plants; 30 g/ha, timing R2 and R3) of the same compound?
Answer: The Protein % was 36.73%.

Question: And the Yield (Soybean plants; 30 g/ha, timing R2 and R3)?
Answer: The Yield was 4118.76 kg/ha.

Question: And the Protein % (Soybean plants; 30 g/ha, timing R2 and R5.5)?
Answer: Its Protein % is 38.56%.

Question: And the Yield (Soybean plants; 30 g/ha, timing R2 and R5.5)?
Answer: Its Yield is 3844.44 kg/ha.

Question: What about the Protein % (Soybean plants; 30 g/ha, timing R3) of the same compound?
Answer: Its Protein % is 38.33%.

Question: And the Yield (Soybean plants; 30 g/ha, timing R3)?
Answer: The Yield was 3747.24 kg/ha.

Question: And the Protein % (Soybean plants; 30 g/ha, timing R3 and R5.5)?
Answer: Its Protein % is 37.87%.

Question: What about the Yield (Soybean plants; 30 g/ha, timing R3 and R5.5) of the same compound?
Answer: The Yield was 3946.68 kg/ha.

Question: And the Protein % (Soybean plants; 30 g/ha, timing R5.5)?
Answer: Its Protein % is 37.58%.

Question: And the Yield (Soybean plants; 30 g/ha, timing R5.5)?
Answer: The Yield was 3817.80 kg/ha.

Question: And the Protein % (Soybean plants; [5])?
Answer: Its Protein % is 38.62%.

Question: What about the Yield (Soybean plants; [5]) of the same compound?
Answer: The Yield was 3923.64 kg/ha.

Question: And the Protein % (Soybean plants; [6])?
Answer: The Protein % was 37.89%.

Question: And the Yield (Soybean plants; [6])?
Answer: Its Yield is 4167.00 kg/ha.
